# Key:
# Assay type in all cases: biochemical
# human EGFR = molecular target: T1, human EGFR (Homo sapiens, UniProt P00533); experiment: EGFR kinase assay ([γ-32P] ATP, poly-Glu-Tyr)
# T1 construct: the cytoplasmic domain (amino acids 669-1210) of human EGFR; FLAG (DYKDDDD) (N); made in house
# Experimental: (§1) The expressed HER2 kinase and EGFR kinase were purified by anti-FLAG M2 affinity gel (Sigma-Aldrich, USA). The HER2 and EGFR kinase assays were performed using radiolabeled [γ-^32P] ATP (GEHealthcare, USA) in 96-well plates. The kinase reactions were performed in 50 mmol/L Tris-HCl, pH7.5, 5 mmol/L MnCl2, 0.01% Tween-20 and 2 mmol/L DTT containing 0.9 μCi of [γ-^32P] ATP per reaction, 50 μmol/L ATP, 5 μg/mL poly-Glu-Tyr (4:1) and 0.25 μg/mL of purified Her2 or EGFR cytoplasmic domain in a total volume of 50 μL. […] Kinase reactions were initiated by adding ATP. After the kinase reaction incubated for 10 minutes at room temperature, reactions were terminated by the addition of 10% (final concentration) trichloroacetic acid. The [γ-^32P]-phosphorylated proteins were filtered in a harvest plate (Millipore, USA) with a cell harvester (PerkinElmer, USA) and washed free of [γ-^32P] ATP with 3% phosphoric acid. The plates were dried, followed by the addition of 25 μL of MicroScintO (PerkinElmer, USA). Radioactivity was counted by a Topcount scintillation counter (PerkinElmer, USA).
# human HER2 = molecular target: T2, human HER2 (Homo sapiens, UniProt P04626); experiment: HER2 kinase assay ([γ-32P] ATP, poly-Glu-Tyr); conditions: phosphorylation of poly-Glu-Tyr copolymer; mean, >1 determination; read-out: Enzyme activity IC50 against HER2 kinase
# T2 construct: The cytoplasmic domain (amino acids 676-1255) of human HER2; FLAG (DYKDDDD) (N); made in house
# Experimental: as §1
# PDGFRα = molecular target: T3, PDGFRα (Homo sapiens, UniProt P16234); experiment: Tyrosine kinase profiling (Alphascreen), PDGFRα; conditions: ATP concentration = Km
# T3 construct: The cytoplasmic domain of vascular endothelial growth factor receptor 2 (VEGFR2), platelet-derived growth factor receptor α (PDGFRα); purchased Millipore Corp
# Experimental: The cytoplasmic domain of vascular endothelial growth factor receptor 2 (VEGFR2), platelet-derived growth factor receptor α (PDGFRα), cSRC were purchased from Millipore Corp. Assays for 3 tyrosine kinases were performed in 384 well plates using the Alphascreen® system (PerkinElmer) at room temperature. Enzyme reactions were performed in 50 mM Tris–HCl, pH7.5, 5 mM MnCl2, 5 mM MgCl2, 0.01% Tween-20, 2 mM dithiothreitol and 0.1 μg/ml biotinylated poly-GluTyr (4:1) containing optimized concentration of enzyme and ATP as described below.
# Prior to the kinase reaction, compound and enzyme were incubated for 5 min at room temperature. The reactions were initiated by adding ATP. After the reaction period as described below at room temperature, the reactions were stopped by the addition of 25 μl of 100 mM EDTA, 10 μg/ml Alphascreen streptavidin donor beads and 10 μg/ml acceptor beads described below in 62.5 mM HEPES, pH 7.4, 250 mM NaCl, and 0.1% BSA. Plates were incubated in the dark for more than 12 h and then read by EnVision 2102 Multilabel Reader (PerkinElmer). The well containing substrate and enzyme without compound was used as total reaction control. […]
# Aurora A = molecular target: T4, Aurora A (Homo sapiens, UniProt O14965); experiment: Serine/threonine kinase profiling ([γ-32P] ATP), Aurora A; conditions: ATP concentration = Km
# T4 construct: 6xHis (N); made in house; host or cells: baculovirus expression system
# T4 sequence (O14965 1-403): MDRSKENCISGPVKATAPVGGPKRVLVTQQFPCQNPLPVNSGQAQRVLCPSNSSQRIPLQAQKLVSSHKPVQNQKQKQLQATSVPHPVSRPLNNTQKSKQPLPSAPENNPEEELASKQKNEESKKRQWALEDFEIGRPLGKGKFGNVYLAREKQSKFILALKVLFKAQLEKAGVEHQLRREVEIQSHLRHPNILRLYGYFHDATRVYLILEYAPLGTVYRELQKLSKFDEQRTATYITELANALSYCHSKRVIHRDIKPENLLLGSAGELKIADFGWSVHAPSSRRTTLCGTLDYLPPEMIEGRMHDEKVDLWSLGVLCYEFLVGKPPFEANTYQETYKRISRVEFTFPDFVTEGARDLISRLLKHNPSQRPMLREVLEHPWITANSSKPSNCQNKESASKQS
# Experimental: (§2) Assays for 4 serine/threonine kinases using radio labeled [γ-^32P] ATP (GE Healthcare, Piscataway, NJ) were performed in 96 well plates. Mitogen-activated protein kinase p38α (p38α), was expressed as N-terminal FLAG-tagged protein using a baculovirus expression system. Aurora-A and -B were expressed as N-terminal 6xHis tagged protein using a baculovirus expression system. CDK2/CycA was expressed as C-terminal 6His-tagged CDK2, and N-terminal GST-tagged Cyclin A protein using a baculovirus expression system.
# (§3) The reaction conditions were optimized for each kinase: p38α (100 ng/well of enzyme, 1 μg/well of MBP (Wako Pure Chemical Ind., Osaka, Japan), 0.1 μCi/well of [γ-^32P] ATP, 60 min reaction at 30 ℃); Aurora-A and -B (50 ng/well of enzyme, 30 μM of Aurora substrate peptide, 0.2 μCi/well of [γ-^32P] ATP, 60 min reaction at room temperature); CDK2/CycA (1.8 mUnits/well of enzyme, 1 μg/well of Histone H1 (Calbiochem), 0.2 μCi/well of [γ-^32P] ATP, 20 min reaction at room temperature).
# (§4) All the four enzyme reactions were performed in 25 mM HEPES, pH 7.5, 10 mM magnesium acetate, 1 mM dithiothreitol and 0.5 μM ATP containing optimized concentration of enzyme, substrate and radiolabeled ATP as described above in a total volume of 50 μl. […] The radioactivity was counted by a TopCount scintillation counter (PerkinElmer).
# Aurora B = molecular target: T5, Aurora B (Homo sapiens, UniProt Q96GD4); experiment: Serine/threonine kinase profiling ([γ-32P] ATP), Aurora B; conditions: ATP concentration = Km
# T5 construct: 6xHis (N); made in house; host or cells: baculovirus expression system
# Experimental: as §2, §3, §4
# T1 sequence (P00533 669-1210): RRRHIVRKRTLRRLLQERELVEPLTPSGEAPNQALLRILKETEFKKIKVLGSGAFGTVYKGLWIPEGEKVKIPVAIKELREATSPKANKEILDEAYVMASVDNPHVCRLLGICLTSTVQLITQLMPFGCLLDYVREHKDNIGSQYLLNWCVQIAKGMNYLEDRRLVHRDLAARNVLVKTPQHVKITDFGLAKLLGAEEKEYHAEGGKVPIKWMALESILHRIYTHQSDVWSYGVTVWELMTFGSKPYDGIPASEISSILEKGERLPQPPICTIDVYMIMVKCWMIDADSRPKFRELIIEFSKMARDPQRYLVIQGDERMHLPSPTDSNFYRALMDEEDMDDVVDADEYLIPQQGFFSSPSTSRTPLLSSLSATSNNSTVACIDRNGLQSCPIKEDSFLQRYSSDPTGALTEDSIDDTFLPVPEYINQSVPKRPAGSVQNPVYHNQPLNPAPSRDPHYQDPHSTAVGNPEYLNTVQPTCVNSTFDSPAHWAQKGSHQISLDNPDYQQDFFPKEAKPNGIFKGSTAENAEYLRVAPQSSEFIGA
# T2 sequence (P04626 676-1255): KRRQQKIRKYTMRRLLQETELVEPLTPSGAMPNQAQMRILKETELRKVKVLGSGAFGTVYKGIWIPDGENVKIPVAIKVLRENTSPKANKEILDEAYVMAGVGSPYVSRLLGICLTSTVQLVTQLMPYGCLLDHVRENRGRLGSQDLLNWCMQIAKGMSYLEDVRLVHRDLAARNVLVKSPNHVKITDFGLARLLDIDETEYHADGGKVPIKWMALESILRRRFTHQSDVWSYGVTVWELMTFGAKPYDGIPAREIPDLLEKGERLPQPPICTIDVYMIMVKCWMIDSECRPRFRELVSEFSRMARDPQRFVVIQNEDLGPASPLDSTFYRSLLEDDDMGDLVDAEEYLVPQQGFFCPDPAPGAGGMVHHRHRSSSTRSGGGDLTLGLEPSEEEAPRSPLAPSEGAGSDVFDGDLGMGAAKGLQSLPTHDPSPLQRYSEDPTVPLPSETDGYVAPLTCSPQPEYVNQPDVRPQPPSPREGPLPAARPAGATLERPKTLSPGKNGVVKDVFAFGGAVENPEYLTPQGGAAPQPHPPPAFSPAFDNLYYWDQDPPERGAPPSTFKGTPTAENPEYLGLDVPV
# T3 sequence (P16234 550-1089 limits assumed, species assumed): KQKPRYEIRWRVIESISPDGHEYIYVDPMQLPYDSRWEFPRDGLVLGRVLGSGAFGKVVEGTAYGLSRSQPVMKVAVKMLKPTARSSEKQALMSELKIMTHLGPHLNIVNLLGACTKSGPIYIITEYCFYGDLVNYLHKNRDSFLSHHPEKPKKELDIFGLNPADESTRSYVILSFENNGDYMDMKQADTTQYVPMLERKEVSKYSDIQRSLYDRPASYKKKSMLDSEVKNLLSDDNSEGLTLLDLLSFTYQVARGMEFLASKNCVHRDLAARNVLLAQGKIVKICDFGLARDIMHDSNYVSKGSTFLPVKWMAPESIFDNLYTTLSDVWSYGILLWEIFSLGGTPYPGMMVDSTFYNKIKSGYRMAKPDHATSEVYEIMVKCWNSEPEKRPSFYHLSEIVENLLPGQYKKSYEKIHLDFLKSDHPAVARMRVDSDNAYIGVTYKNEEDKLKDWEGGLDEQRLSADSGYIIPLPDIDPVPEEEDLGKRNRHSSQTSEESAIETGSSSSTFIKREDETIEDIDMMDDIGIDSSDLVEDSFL
# T5 sequence (Q96GD4 whole entry): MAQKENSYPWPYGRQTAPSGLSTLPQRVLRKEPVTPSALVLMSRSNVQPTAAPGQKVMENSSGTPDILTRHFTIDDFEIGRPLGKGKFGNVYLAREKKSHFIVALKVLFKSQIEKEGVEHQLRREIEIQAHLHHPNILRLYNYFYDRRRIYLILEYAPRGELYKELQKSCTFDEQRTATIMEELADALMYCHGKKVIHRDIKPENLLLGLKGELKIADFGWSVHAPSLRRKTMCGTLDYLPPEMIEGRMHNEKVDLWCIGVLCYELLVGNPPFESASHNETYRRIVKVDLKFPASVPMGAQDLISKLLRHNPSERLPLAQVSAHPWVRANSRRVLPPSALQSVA
structure (smiles),measurement,setting,value
"O=C(Nc1ccc2ncnc(Nc3cccc(Br)c3)c2c1)c1ccc(C(F)(F)F)cc1O [Compound 21, N-(4-(3-bromophenylamino)quinazolin-6-yl)-2-hydroxy-4-(trifluoromethyl)benzamide]",pIC50 EGFR,human EGFR; converted from IC50 by online calculator,6.92
same,IC50,"human EGFR; phosphorylation of poly-Glu-Tyr copolymer, mean, >1 determination, read-out: Enzyme activity IC50 against EGFR kinase",0.12 ± 0.012 µM
same,IC50,human HER2,0.096 ± 0.004 µM
same,IC50,PDGFRα,17.3 ± 0.06 µM
same,IC50,Aurora A,58.4 ± 0.78 µM
same,IC50,Aurora B,63.7 ± 1.02 µM
